Source: the Deep4Chem optical property database

Test: solvent given as SMILES
[1] = in O=P(c1ccccc1)(c1ccccc1)c1ccccc1Oc1ccccc1P(=O)(c1ccccc1)c1ccccc1

For O=[N+]([O-])c1ccc(/C2=C3N=C(C(c4ccccc4)=C/3c3ccccc3)/C(c3ccc([N+](=O)[O-])cc3)=c3\[nH]/c(c(-c4ccccc4)c3-c3ccccc3)=C(/c3ccc([N+](=O)[O-])cc3)C3=N/C(=C(/c4ccc([N+](=O)[O-])cc4)c4[nH]c2c(-c2ccccc2)c4-c2ccccc2)C(c2ccccc2)=C3c2ccccc2)cc1, which fluorescence lifetime (in ClCCl) is on record?
The fluorescence lifetime was 0.395 ns.

For O=C1NC(=O)c2ccc(N3CCCCC3)c3cccc1c23, which fluorescence lifetime (in C1CCOC1) is on record?
Its fluorescence lifetime is 7.02 ns.

And the fluorescence lifetime (in ClC(Cl)Cl)?
The fluorescence lifetime was 8.86 ns.

And the fluorescence lifetime (in ClCCl)?
The fluorescence lifetime was 7.02 ns.

What does the source list for c1ccc2c(c1)cc(-c1cc(-c3nccs3)nc(-c3nccs3)c1)c1ccccc12?
fluorescence lifetime (in CC#N): 1.94 ns; fluorescence lifetime (in CCCCCC): 5 ns; fluorescence lifetime (in CO): 1.79 ns; fluorescence lifetime (in ClC(Cl)Cl): 2.54 ns

For CCCCN1C(=O)c2cc(Oc3ccc(C(C)(C)C)cc3)c3c4c(Oc5ccc(C(C)(C)C)cc5)cc5c(=O)[nH]/c(=C\c6ccccn6)c6cc(Oc7ccc(C(C)(C)C)cc7)c(c7c(Oc8ccc(C(C)(C)C)cc8)cc(c2c37)C1=O)c4c56, which fluorescence lifetime (in C1CCOC1) is on record?
Its fluorescence lifetime is 3.33 ns.

What about the fluorescence lifetime (in Cc1ccccc1) of the same compound?
The fluorescence lifetime was 3.57 ns.

What about the fluorescence lifetime (in ClCCl) of the same compound?
The fluorescence lifetime was 4.05 ns.

For Cc1cc(C)c(C)c(-c2ccc3cc(C)c(=O)oc3c2)c1C, which fluorescence lifetime (in C1CCCCC1) is on record?
Its fluorescence lifetime is 0.84 ns.

What about the fluorescence lifetime (in CC#N) of the same compound?
The fluorescence lifetime was 1.07 ns.

What about the fluorescence lifetime (in CO) of the same compound?
Its fluorescence lifetime is 1.43 ns.

Which fluorescence lifetime (in Cc1ccccc1) does the source give for CC1(C)c2ccccc2N(c2ccc(-c3cc(-c4ccccc4)nc(-c4ccccc4)n3)cc2)c2ccccc21 here?
Its fluorescence lifetime is 4.23 ns.

What about the fluorescence lifetime (in ClCCl) of the same compound?
The fluorescence lifetime was 25 ns.

Which fluorescence lifetime (in CCCCCCC) does the source give for Clc1nc(Cl)nc(Nc2cc3ccc4cccc5ccc(c2)c3c45)n1 here?
Its fluorescence lifetime is 122 ns.

With COc1ccc(C#Cc2c3ccccc3c3n2[B-](F)(F)[N+]2=C(C)C=C(C)C2=C3)cc1 as the compound, how does the fluorescence lifetime (in CCCCCC) read?
The fluorescence lifetime was 5.2 ns.

What about the fluorescence lifetime (in CCCCCCCCO) of the same compound?
The fluorescence lifetime was 4.65 ns.

And the fluorescence lifetime (in CCOC(C)=O)?
The fluorescence lifetime was 4.93 ns.

And the fluorescence lifetime (in CN(C)C=O)?
Its fluorescence lifetime is 4.41 ns.

Which fluorescence lifetime [1] does the source give for O=C(c1ccc(-n2c3ccccc3c3ccccc32)cc1)c1ccc(-n2c3ccccc3c3ccccc32)cc1 here?
Its fluorescence lifetime is 59 ns.

Which fluorescence lifetime (in c1ccccc1) does the source give for COc1ccc(-c2nc3c(ccc4ccccc43)oc2=O)cc1 here?
Its fluorescence lifetime is 2.1 ns.

With COc1cccc2c1-c1ccccc1C2=O as the compound, how does the fluorescence lifetime (in C1CCCCC1) read?
The fluorescence lifetime was 10.7 ns.

What about the fluorescence lifetime (in CC#N) of the same compound?
Its fluorescence lifetime is 1.8 ns.

Which results are given for C=CCOc1nnc(OCCC(F)(F)C(F)(F)C(F)(F)C(F)(F)C(F)(F)C(F)(F)C(F)(F)C(F)(F)F)nn1?
fluorescence lifetime (in ClCCl): 63.4 ns; fluorescence lifetime (in OCC(F)(F)F): 8.5 ns

For CCCCn1c(=O)c2cc3ccc4cccc5ccc(c2c1=O)c3c45, which fluorescence lifetime (in ClC(Cl)Cl) is on record?
The fluorescence lifetime was 5.48 ns.

Which results are given for Cc1ccc(-c2c3ccc([nH]3)c3nc(c(-c4ccc(C#N)cc4)c4ccc([nH]4)c4ccc([nH]4)c(-c4ccc(C)cc4)c4ccc2o4)C=C3)cc1?
fluorescence lifetime (in C1CCOC1): 5.26 ns; fluorescence lifetime (in Cc1ccccc1): 4.39 ns; fluorescence lifetime (in c1ccccc1): 5.94 ns

With Cc1c(-c2nc(-c3ccccc3)nc(-c3ccccc3)n2)ccc(-n2c3ccccc3c3cc4c(cc32)C2c3ccccc3C4c3ccccc32)c1C as the compound, how does the fluorescence lifetime [1] read?
The fluorescence lifetime was 10 ns.

With COc1ccc(C#Cc2ccc(C#Cc3ccc(P(=O)(c4ccc(C#Cc5ccc(C#Cc6ccc(OC)cc6)cc5)cc4)c4ccc(C#Cc5ccc(C#Cc6ccc(OC)cc6)cc5)cc4)cc3)cc2)cc1 as the compound, how does the fluorescence lifetime (in C1CCCCC1) read?
The fluorescence lifetime was 0.58 ns.

What about the fluorescence lifetime (in C1COCCO1) of the same compound?
The fluorescence lifetime was 0.69 ns.

And the fluorescence lifetime (in CC#N)?
The fluorescence lifetime was 1.14 ns.

What about the fluorescence lifetime (in CCO) of the same compound?
Its fluorescence lifetime is 1.02 ns.

What about the fluorescence lifetime (in CS(C)=O) of the same compound?
Its fluorescence lifetime is 1.24 ns.

And the fluorescence lifetime (in ClC(Cl)Cl)?
Its fluorescence lifetime is 0.74 ns.

And the fluorescence lifetime (in ClCCl)?
Its fluorescence lifetime is 0.85 ns.

With CCCN1/C(=C\c2c(-c3ccc(N(C)C)cc3)c(=O)c2=O)C=Cc2ccccc21 as the compound, how does the fluorescence lifetime (in C1CCCCC1) read?
The fluorescence lifetime was 1.01 ns.

What about the fluorescence lifetime (in Cc1ccccc1) of the same compound?
Its fluorescence lifetime is 2.46 ns.

And the fluorescence lifetime (in ClCCl)?
Its fluorescence lifetime is 0.09 ns.

With C#CCN1C(=O)/C(=C/c2cc(OC(C)C)ccc2OC(C)C)N=C1C as the compound, how does the fluorescence lifetime (in C1COCCO1) read?
Its fluorescence lifetime is 1.66 ns.

And the fluorescence lifetime (in CC#N)?
The fluorescence lifetime was 2.22 ns.

What about the fluorescence lifetime (in CC(C)=O) of the same compound?
Its fluorescence lifetime is 2.17 ns.

And the fluorescence lifetime (in CCCCCC)?
Its fluorescence lifetime is 0.89 ns.

And the fluorescence lifetime (in CCCCO)?
The fluorescence lifetime was 0.82 ns.

And the fluorescence lifetime (in CCCO)?
The fluorescence lifetime was 0.85 ns.

And the fluorescence lifetime (in CCO)?
Its fluorescence lifetime is 1 ns.

What about the fluorescence lifetime (in CCOC(C)=O) of the same compound?
Its fluorescence lifetime is 1.5 ns.

What about the fluorescence lifetime (in CN(C)C=O) of the same compound?
Its fluorescence lifetime is 2.62 ns.

And the fluorescence lifetime (in CO)?
The fluorescence lifetime was 1.1 ns.

What about the fluorescence lifetime (in CS(C)=O) of the same compound?
The fluorescence lifetime was 3.03 ns.

For c1ccc2c(c1)CCc1c-2cnc2c1-c1ccccc1CC2, which fluorescence lifetime (in C1CCOC1) is on record?
The fluorescence lifetime was 3.33 ns.

What about the fluorescence lifetime (in CC#N) of the same compound?
Its fluorescence lifetime is 3.66 ns.

And the fluorescence lifetime (in CCCCCC)?
Its fluorescence lifetime is 3.14 ns.

What about the fluorescence lifetime (in CCOC(C)=O) of the same compound?
Its fluorescence lifetime is 3.46 ns.

What about the fluorescence lifetime (in CO) of the same compound?
The fluorescence lifetime was 3.96 ns.

And the fluorescence lifetime (in CS(C)=O)?
Its fluorescence lifetime is 3.88 ns.

And the fluorescence lifetime (in Cc1ccccc1)?
The fluorescence lifetime was 3.24 ns.

And the fluorescence lifetime (in ClCCl)?
The fluorescence lifetime was 3.67 ns.

With N#Cc1ccc(/C=C/c2c3ccccc3cc3ccccc23)cc1 as the compound, how does the fluorescence lifetime (in C1CCOC1) read?
The fluorescence lifetime was 0.82 ns.

What about the fluorescence lifetime (in CC1CCCCC1) of the same compound?
The fluorescence lifetime was 3.01 ns.

And the fluorescence lifetime (in CC#N)?
The fluorescence lifetime was 0.68 ns.

And the fluorescence lifetime (in CO)?
The fluorescence lifetime was 0.6 ns.

What about the fluorescence lifetime (in Cc1ccccc1) of the same compound?
The fluorescence lifetime was 2.12 ns.

And the fluorescence lifetime (in ClC(Cl)Cl)?
Its fluorescence lifetime is 0.82 ns.

Which fluorescence lifetime (in C1CCOC1) does the source give for COc1ccc2cc(-c3ccc([N+](=O)[O-])cc3)ccc2c1 here?
The fluorescence lifetime was 0.33 ns.

What about the fluorescence lifetime (in CC#N) of the same compound?
Its fluorescence lifetime is 0.22 ns.

And the fluorescence lifetime (in ClC(Cl)Cl)?
Its fluorescence lifetime is 1.87 ns.

And the fluorescence lifetime (in ClCCl)?
The fluorescence lifetime was 2.04 ns.

Which fluorescence lifetime (in Cc1ccccc1) does the source give for CC1=C(c2cccs2)C(C)=[N+]2C1=C(c1ccc(OS(=O)(=O)c3ccc([N+](=O)[O-])cc3[N+](=O)[O-])cc1)c1c(C)c(-c3cccs3)c(C)n1[B-]2(F)F here?
The fluorescence lifetime was 3.6 ns.

For CC1(C)C(/C=C/C2=C(Oc3ccc(CCN=C=S)cc3I)C(=C/C=C3/N(CCCS(=O)(=O)[O-])c4ccccc4C3(C)C)/CCC2)=[N+](CCCS(=O)(=O)[O-])c2ccccc21, which fluorescence lifetime (in CO) is on record?
Its fluorescence lifetime is 0.947 ns.

Which fluorescence lifetime (in Cc1ccccc1) does the source give for N#Cc1cc(C#N)cc(-n2c3ccccc3c3cc(-c4ccc5c(c4)c4ccccc4n5-c4cc(C#N)cc(C#N)c4)ccc32)c1 here?
Its fluorescence lifetime is 24 ns.

For c1ccc(-c2cc(-c3ccc(N4c5ccccc5C(c5ccccc5)(c5ccccc5)c5ccccc54)cn3)nc(-c3ccccc3)n2)cc1, which fluorescence lifetime [1] is on record?
Its fluorescence lifetime is 13.3 ns.

Which fluorescence lifetime (in C1CCOC1) does the source give for CCn1c2ccccc2c2cc(-c3cc(-c4ccc5c(c4)c4ccccc4n5CC)ncn3)ccc21 here?
Its fluorescence lifetime is 1.86 ns.

Which fluorescence lifetime (in C1CCOC1) does the source give for CCOC(=O)C1=CN(c2ccccc2)C=C(C(=O)OCC)C1c1ccccc1 here?
The fluorescence lifetime was 8.98 ns.

And the fluorescence lifetime (in CO)?
The fluorescence lifetime was 15.1 ns.

Which fluorescence lifetime (in O=P(c1ccccc1)(c1ccccc1)c1ccc2oc3ccc(P(=O)(c4ccccc4)c4ccccc4)cc3c2c1) does the source give for c1ccc(-c2nc(-c3ccccc3)nc(-c3cc(-n4c5ccccc5c5ccccc54)c(-n4c5ccccc5c5ncccc54)c(-n4c5ccccc5c5ccccc54)c3)n2)cc1 here?
Its fluorescence lifetime is 20.4 ns.

Which fluorescence lifetime (in CCCCCC) does the source give for Cc1cc(C)c(B(c2cc3c4c(c(B(c5c(C)cc(C)cc5C)c5c(C)cc(C)cc5C)cc5c4c2CCC5)CCC3)c2c(C)cc(C)cc2C)c(C)c1 here?
The fluorescence lifetime was 14.6 ns.

For COC(=O)[C@]12N=N[C@](C(=O)OC)(C3C4C5C4C5C31)C1C3C4C3C4C12 (stereo partly drawn), which fluorescence lifetime (in CC#N) is on record?
Its fluorescence lifetime is 166 ns.

For CCCCCCN1C(=O)C(c2ccc(-c3ccc(-n4c5ccccc5c5ccccc54)cc3)cc2)=C(c2ccc(-c3ccc(-n4c5ccccc5c5ccccc54)cc3)cc2)C1=O, which fluorescence lifetime (in ClC(Cl)Cl) is on record?
Its fluorescence lifetime is 6.4 ns.

And the fluorescence lifetime (in c1ccc2c(c1)c1ccccc1n2-c1ccc(-c2ccc(-n3c4ccccc4c4ccccc43)cc2)cc1)?
The fluorescence lifetime was 5.5 ns.

Which fluorescence lifetime (in CO) does the source give for CC[n+]1c(C=C2C(=O)C(C=C3N(C)c4ccc(Cl)cc4C3(C)C)=C2[O-])sc2ccccc21 here?
The fluorescence lifetime was 0.26 ns.

What about the fluorescence lifetime (in ClC(Cl)Cl) of the same compound?
The fluorescence lifetime was 1.65 ns.

Which fluorescence lifetime (in ClCCl) does the source give for Nc1ccc2c(ccc3[n+]2[B-](F)(F)n2c-3cc3c4ccccc4c4ccccc4c32)c1 here?
Its fluorescence lifetime is 2.96 ns.

For CCCCN1C(=O)c2cc(Oc3ccc(C(C)(C)C)cc3)c3c4c(Oc5ccc(C(C)(C)C)cc5)c(Oc5ccc(C(C)(C)C)cc5)c5c6c(cc(Oc7ccc(C(C)(C)C)cc7)c(c7c(Oc8ccc(C(C)(C)C)cc8)c(Oc8ccc(C(C)(C)C)cc8)c(c2c37)C1=O)c64)C(=O)N(CCCC)C5=O, which fluorescence lifetime (in ClC(Cl)Cl) is on record?
The fluorescence lifetime was 6.3 ns.

With CCCCOC(=O)c1cc(Cl)c2c3c(Cl)cc4c5c(cc(Cl)c(c6c(Cl)cc(C(=O)OCCCC)c1c26)c53)C(=O)N(c1c(C(C)C)cccc1C(C)C)C4=O as the compound, how does the fluorescence lifetime (in Cc1ccccc1) read?
Its fluorescence lifetime is 4.86 ns.

With O=c1oc2cc(S(=O)(=O)O)c3ccccc3c2nc1-c1ccccc1 as the compound, how does the fluorescence lifetime (in CC#N) read?
The fluorescence lifetime was 4.5 ns.

With COC(C)CC1=N/C(=C\c2cccc(N(C)C)c2)C(=O)N1C (stereo not drawn) as the compound, how does the fluorescence lifetime (in C1CCOC1) read?
The fluorescence lifetime was 15.3 ns.

What about the fluorescence lifetime (in CC#N) of the same compound?
The fluorescence lifetime was 7.7 ns.

What about the fluorescence lifetime (in CCCCCC) of the same compound?
Its fluorescence lifetime is 22.4 ns.

With CCCCn1c2ccc(-c3cccs3)cc2c2c1c1c3ccc(-c4cccs4)cc3n(CCCC)c1c1c3ccc(-c4cccs4)cc3n(CCCC)c21 as the compound, how does the fluorescence lifetime (in C1CCOC1) read?
The fluorescence lifetime was 4.2 ns.
